25 compounds from patent US4798897A, “Isoquinoline derivatives” (Asahi Kasei Kogyo Kabushiki Kaisha, priority 1987, dated 1989) can be followed below.

The LD50 is the dose at which mortality reaches 50%.

pEC50: −log10 of the molar value. Read-outs that look alike come from different tables or passages of the source.

The nature of data set [1]: Acute toxicity in mice. The settings on record: mouse, in vivo, male mice. The method, then: (§1) Using ddY male mice and Wistar male rats, the acute toxicity of the compounds of the present invention was examined with respect to LD50 according to the method proposed by K. Takagi et al. (K. Takagi and H. Ozawa, "Expeprimental Techniques in Pharmacology," p200-206 (1960), NANZANDO CO., LTD., Japan).
(§2) Compounds of the present invention were tested with respect to acute toxicities according to the method as mentioned hereinbefore.

Data set [2] has as its system mesenteric artery. Put plainly: Relaxation of mesenteric artery (KCl-contracted). The settings on record: Oryctolagus cuniculus; rabbit mesenteric artery contracted with 15 to 20 mM KCl; read-out: ED50 (concentration attaining 50% of complete relaxation). As to the method:
1. Relaxation of Mesenteric Artery
A rabbit of Japanese local variety weighing about 3 kg was bled to death. Then, the abdomen of the rabbit was dissected to locate a mesenteric artery. […] Thus, shrinking and relaxation of the artery could be measured as a load on the transducer. To the organ bath, KCl was added so that the KCl concentration became 15 to 20 mM, causing the artery to shrink. Then, the compounds of the present invention were added to the organ bath to observe relaxation of the artery.
The effect of the compounds of the present invention on relaxation of mesenteric artery was examined according to the method as mentioned hereinbefore.

Data set [3] has as its system coronary artery. The data set can be described thus: Blood flow increase of coronary artery in anesthetized dogs, i.v. Type of data set: in vivo, dog (mongrel). The settings on record: Canis lupus familiaris, iv; for change in vivo at 0.3 mg/kg: read-out: Increase in coronary artery blood flow. As to the method:
(§3) 2. Blood Flow Increase of Coronary, Vertebral and Femoral Arteries
(§4) A plethysmographic probe (manufactured and sold by NIHON KODEN CO., LTD., Japan) was mounted on the coronary, vertebral and femoral arteries, and blood flow was measured by means of an electromagnetic blood flowmeter (type:MF-27, manufactured and sold by NIHON KODEN CO., LTD., Japan). Under these conditions, the compounds of the present invention were intravenously administered through a polyethylene tube inserted to a femoral veinlet, and the change in blood flow was measured for 30 minutes by means of the electromagnetic blood flowmeter.
(§5) The effects (dilation of the arteries) of the compounds of the present invention on blood flow in coronary, vertebral and femoral arteries were examined according to the method as mentioned hereinbefore.

Data set [4] relates to bronchial tubes. Put plainly: Inhibition of histamine contraction of bronchial tubes (relaxation of bronchial tubes). The settings on record: Cavia porcellus; guinea pig bronchial tube, 10 μM histamine; Table 16; read-out: ED50 (50% decrease of histamine contraction of bronchial tubes). As to the method: 3. Inhibition of Histamine Contraction of Bronchial Tubes (Relaxation of Bronchial Tubes)
That is, a bronchial tube sample taken from a guinea pig was suspended in the 20-ml bath filled with Krebs-Henseleit nutrient solution and maintained at a temperature of 37° C. To the bath was added histamine so that the histamine concentration became 10 μM, causing the bronchial tube sample to contract. After the contraction became stable, the compounds of the present invention were added cumulatively to the bath to observe relaxation of the bronchial tube sample.
The effect of the compounds of the present invention on relaxation of bronchial tubes was examined according to the method as mentioned hereinbefore.

Data set [5] concerns vertebral artery. Put plainly: Blood flow increase of vertebral artery in anesthetized dogs, i.v. It counts as in vivo, dog (mongrel). The settings on record: Canis lupus familiaris, iv; for change in vivo at 0.3 mg/kg: read-out: Increase in vertebral artery blood flow. As to the method:
as §3, §4, §5

Data set [6] has as its system femoral artery. Put plainly: Blood flow increase of femoral artery in anesthetized dogs, i.v. It counts as in vivo, dog (mongrel). The conditions noted are these: Canis lupus familiaris, iv; for change in vivo at 0.3 mg/kg: read-out: Increase in femoral artery blood flow. As to the method: as §3, §4, §5
Data set [7] in a line: Acute toxicity in rats. The settings on record: in vivo, male rat. As to the method:
as §1, §2

As to `CCCCN(CCN)S(=O)(=O)c1cccc2cnccc12` [Compound (3), N-(2-aminoethyl)-N-butyl-5-isoquinolinesulfonamide], the LD50 in data set [1] (iv) was determined as 105 mg/kg. For the same compound, the pEC50 in data set [2] is 5.70; in data set [4], 5.30. Further, the change in vivo at 0.3 mg/kg in data set [3] (dog, i.v., 0.3 mg/kg) is 134%; in data set [5] (dog, i.v., 0.3 mg/kg), 130%; in data set [6] (dog, i.v., 0.3 mg/kg), 25%.

For `O=S(=O)(c1cccc2cnccc12)N1CCNCC1` [Comparative Compound No. 3, 1(5-Isoquinolinesulfonyl)piperazine, reference compound], the change in vivo at 1 mg/kg in data set [3] (dog) turned out to be 70%; in data set [5] (dog) it was 98%; in data set [6] (dog), 69%.

With `O=S(=O)(c1cccc2c(O)nccc12)N1CCCNCC1` [Comparative Compound No. 2, 1(1-Hydroxy-5-isoquinolinesulfonyl)-homopiperazine, reference compound], the change in vivo at 0.3 mg/kg in data set [3] came out at 27%; in data set [5] it was 48%; in data set [6], 30%.

`CCCCCCN(CCN)S(=O)(=O)c1cccc2cnccc12` [Compound (4), N-(2-aminoethyl)-N-hexyl-5-isoquinolinesulfonamide]: the LD50 in data set [1] (iv) came out at 95 mg/kg; in data set [1] (po), 1100 mg/kg; in data set [7] (iv), 131 mg/kg; in data set [7] (po) it was 968 mg/kg. The pEC50 in data set [2] is 6.00; in data set [4], 5.52. Moreover, the change in vivo at 0.3 mg/kg in data set [3] (dog, i.v., 0.3 mg/kg) was 188%; in data set [5] (dog, i.v., 0.3 mg/kg) it was 170%; in data set [6] (dog, i.v., 0.3 mg/kg), 38%.

With `NC1CCCN(S(=O)(=O)c2cccc3c(O)nccc23)C1` (stereo not drawn) [Compound (84), 1-(1-hydroxy-5-isoquinolinesulfonyl)-3-aminopiperidine], in data set [1] (iv), the LD50 worked out at 141 mg/kg. Further, the pEC50 in data set [2] is 4.89; in data set [4], 5.10. Moreover, the figures for the change in vivo at 1 mg/kg in data set [3] (dog), in data set [5] (dog) and in data set [6] (dog) were 74%, 51% and 27%, respectively.

For `O=S(=O)(c1cccc2cnccc12)N1CCCNCC1` [Comparative Compound No. 1, 1(5-Isoquinolinesulfonyl)homopiperazine, reference compound], the change in vivo at 0.3 mg/kg in data set [3] (dog, i.v., 0.3 mg/kg) stood at 89%; in data set [5] (dog, i.v., 0.3 mg/kg), 160%; in data set [6] (dog, i.v., 0.3 mg/kg), 48%.

Turning to `CCCCCCNC1CCCN(S(=O)(=O)c2cccc3cnccc23)C1` (stereo not drawn) [Compound (71), 1-(5-isoquinolinesulfonyl)-3-hexylaminopiperidine], the pEC50 in data set [2] is 5.40; in data set [4] it was 5.00. In addition, the change in vivo at 1 mg/kg worked out at 102% in data set [3] (dog), 85% in data set [5] (dog) and 35% in data set [6] (dog).

As to `CCCN(C(C)CCCNCc1ccccc1)S(=O)(=O)c1cccc2cnccc12` (stereo not drawn) [Compound (40), N-(4-benzylamino-1-methylbutyl)-N-propyl-5-isoquinolinesulfonamide], the pEC50 in data set [2] is 4.85; in data set [4], 4.66.

For the compound `CCCCCCN(CCNCc1ccccc1)S(=O)(=O)c1cccc2cnccc12` [Compound (32), N-(2-benzylamioethyl)-N-hexyl-5-isoquinolinesulfonamide], the pEC50 is 5.10 in data set [2] and 4.77 in data set [4].

With `CCCN(C(CN)C(C)C)S(=O)(=O)c1cccc2cnccc12` (stereo not drawn) [Compound (18), N-(1-aminomethyl-2-methylpropyl)-N-propyl-5-isoquinolinesulfonamide], the pEC50 in data set [2] and in data set [4] was 4.89 each time.

For the compound `O=S(=O)(c1cccc2c(Cl)nccc12)N1CCC(NCc2ccccc2)CC1` [Compound (95), 1-(1-chloro-5-isoquinolinesulfonyl)-4-benzylaminopiperidine], the results for the pEC50 in data set [2] and in data set [4] were 4.85 and 4.74, respectively.

As to `CCCN(CC(C)CN)S(=O)(=O)c1cccc2cnccc12` (stereo not drawn) [Compound (20), N-(3-amino-2-methylpropyl)-N-propyl-5-isoquinolinesulfonamide], the pEC50 in data set [2] was 4.77; in data set [4] it was 4.82.

As to `CN(C)C1CCCN(S(=O)(=O)c2cccc3c(O)nccc23)C1` (stereo not drawn) [Compound (90), 1-(1-hydroxy-5-isoquinolinesulfonyl)-3-dimethylaminopiperidine], the pEC50 was 4.64 in data set [2] and 4.77 in data set [4].

Regarding `CCCCCCN(C(CCC)CCCN)S(=O)(=O)c1cccc2cnccc12` (stereo not drawn) [Compound (24), N-(4-amino-1-propylbutyl)-N-hexyl-5-isoquinolinesulfonamide], the pEC50 in data set [2] was 4.64; in data set [4], 4.77.

As for `CCNCCN(CC)S(=O)(=O)c1cccc2cnccc12` [Compound (26), N-(2-ethylaminoethyl)-N-ethyl-5-isoquniolinesulfonamide], the values for the pEC50 in data set [2] and in data set [4] were 4.96 and 5.10, respectively.

`CCCCCCCCC(N)CN(CCCCCC)S(=O)(=O)c1cccc2cnccc12` (stereo not drawn) [Compound (15), N-(2-aminodecyl)-N-hexyl-5-isoquinolinesulfonamide]: the values for the pEC50 in data set [2] and in data set [4] were 5.15 and 4.60, respectively.

`O=S(=O)(c1cccc2cnccc12)N1CCC(NCc2ccccc2)CC1` [Compound (60), 1-(5-isoquinolinesulfonyl)-4-benzylaminopiperidine]: the pEC50 is 4.72 in data set [2] and 4.89 in data set [4].

Take `CC1CC(N)CN1S(=O)(=O)c1cccc2cnccc12` (stereo not drawn) [Compound (77), 1-(5-isoquinolinesulfonyl)-3-amino-5-methylpyrrolidine]: the pEC50 in data set [2] was 4.80; in data set [4], 4.49.

`CCCCCCNCCN(CC)S(=O)(=O)c1cccc2cnccc12` [Compound (28), N-ethyl-N-(2-hexylaminoethyl)-5-isoquinolinesulfonamide] returned an LD50 in data set [1] (iv) of 145 mg/kg. In addition, the pEC50 is 5.00 in data set [2] and 5.05 in data set [4]. The change in vivo at 0.3 mg/kg in data set [3] (dog, i.v., 0.3 mg/kg) amounted to 114%; in data set [5] (dog, i.v., 0.3 mg/kg) it was 110%; in data set [6] (dog, i.v., 0.3 mg/kg), 31%.

As to `CCCNC1CCN(S(=O)(=O)c2cccc3c(O)nccc23)CC1` [Compound (81), 1-(1-hydroxy-5-isoquinolinesulfonyl)-4-propylaminopiperidine], the pEC50 in data set [2] was 4.92; in data set [4], 4.85.

Take `CCCCCCN(C(C)CCCN)S(=O)(=O)c1cccc2cnccc12` (stereo not drawn) [Compound (21), N-(4-amino-1-methylbutyl)-N-hexyl-5-isoquinolinesulfonamide]: the pEC50 in data set [2] is 4.72; in data set [4], 4.77.

For the compound `CC1CCN(S(=O)(=O)c2cccc3cnccc23)CC1N` (stereo not drawn) [Compound (75), 1-(5-isoquinolinesulfonyl)-3-amino-4-methylpiperidine], the pEC50 in data set [2] was 4.70; in data set [4], 4.80.

`CCCCN(CCNCCc1ccccc1)S(=O)(=O)c1cccc2cnccc12` [Compound (31), N-butyl-N-(2-phenylethylaminoethyl)-5-isoquinolinesulfonamide]: the results for the pEC50 in data set [2] and in data set [4] were 5.00 and 4.82, respectively.

Consider `O=S(=O)(c1cccc2c(O)nccc12)N1CCCC(NCCc2ccccc2)C1` (stereo not drawn) [Compound (89), 1-(1-hydroxy-5-isoquinolinesulfonyl)-3-phenethylaminopiperidine], for which the pEC50 in data set [2] was 4.92; in data set [4] it was 5.00.

`CCNC1CCCN(S(=O)(=O)c2cccc3c(Cl)nccc23)C1` (stereo not drawn) [Compound (97), 1-(1-chloro-5-isoquinolinesulfonyl)-3-ethylaminopiperidine]: the values for the pEC50 in data set [2] and in data set [4] were 4.82 and 5.00, respectively.
